From the supplement of paper PMC8671470
± gives the standard deviation of the averaged measurements.

Legend:
[1] = tested on: HL-60; assay: area under dose-response curve (viability, 1 nM-10 uM) (fraction (0-1)); higher = more sensitive; conditions: 72 h
Summary of the method: (§1)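 A rescreen of the full library used HL-60 cells in RPMI 1640 with 10% FBS on 384-well plates, run in duplicate at five tenfold concentrations (1–10,000 nM). Each screen included DMSO or 100 nM of one of three metabolic inhibitors and ran 72 h at 37 °C, 5% CO2. CellTiter-Glo viability was scaled between DMSO and 10 μM proteasome-inhibitor wells. Any area under the curve comes from four-parameter log-logistic fits with drc and PharmacoGx.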

[2] = tested on: HL-60; assay: cell viability (% survival relative to DMSO control); higher = less cytotoxic; conditions: 72 h
Summary of the method: as §1

[3] = co-treatment: GSK2194069 100 nM
[4] = co-treatment: pictilisib 100 nM
[5] = 0.001 µM, co-treatment: AZD3965 100 nM
[6] = 0.001 µM, co-treatment: DMSO vehicle
[7] = 0.001 µM, co-treatment: GSK2194069 100 nM
[8] = 0.001 µM, co-treatment: pictilisib 100 nM
[9] = 0.01 µM, co-treatment: AZD3965 100 nM
[10] = 0.01 µM, co-treatment: DMSO vehicle
[11] = 0.01 µM, co-treatment: GSK2194069 100 nM
[12] = 0.01 µM, co-treatment: pictilisib 100 nM
[13] = 0.1 µM, co-treatment: AZD3965 100 nM
[14] = 0.1 µM, co-treatment: DMSO vehicle
[15] = 0.1 µM, co-treatment: GSK2194069 100 nM
[16] = 0.1 µM, co-treatment: pictilisib 100 nM
[17] = 1 µM, co-treatment: AZD3965 100 nM
[18] = 1 µM, co-treatment: DMSO vehicle
[19] = 1 µM, co-treatment: GSK2194069 100 nM
[20] = 1 µM, co-treatment: pictilisib 100 nM
[21] = 10 µM, co-treatment: AZD3965 100 nM
[22] = 10 µM, co-treatment: DMSO vehicle
[23] = 10 µM, co-treatment: GSK2194069 100 nM
[24] = 10 µM, co-treatment: pictilisib 100 nM

SMILES | area under dose-response curve ([1]; co-treatment: AZD3965 100 nM) | area under dose-response curve ([1]; co-treatment: DMSO vehicle) | area under dose-response curve [1, 3] | area under dose-response curve [1, 4] | cell viability [2, 5] | cell viability [2, 6] | cell viability [2, 7] | cell viability [2, 8] | cell viability [2, 9] | cell viability [2, 10] | cell viability [2, 11] | cell viability [2, 12] | cell viability [2, 13] | cell viability [2, 14] | cell viability [2, 15] | cell viability [2, 16] | cell viability [2, 17] | cell viability [2, 18] | cell viability [2, 19] | cell viability [2, 20] | cell viability [2, 21] | cell viability [2, 22] | cell viability [2, 23] | cell viability [2, 24]
Cc1ccc(-c2cc(C(F)(F)F)nn2-c2ccc(S(N)(=O)=O)cc2)cc1 [Celecoxib] | < 0.0301 | < 0.0301 | < 0.0301 | < 0.0301 | 104 ± 1.8% | 103 ± 1.3% | 101 ± 1.5% | 102 ± 3.9% | 99.7 ± 2.2% | 90.4 ± 19% | 87.7 ± 19% | 98.6 ± 12% | 101 ± 2.7% | 100 ± 3.8% | 97.67 ± 0.35% | 96.2 ± 5.6% | 106 ± 7.8% | 105 ± 8.1% | 103 ± 6.2% | 122 ± 8.5% | 114.8 ± 0.68% | 110.57 ± 0.073% | 104 ± 3% | 125 ± 10%
Cc1nc(-c2ccccc2)sc1C(=O)Nc1ccc(S(N)(=O)=O)cc1 | < 0.0301 | < 0.0301 | < 0.0301 | < 0.0301 | 101 ± 2.2% | 103 ± 2.4% | 99.3 ± 3.8% | 101 ± 1.8% | 109 ± 3.9% | 109 ± 1.8% | 104 ± 1.3% | 97.6 ± 6.2% | 96 ± 1.3% | 100.3 ± 1% | 85.9 ± 4.9% | 92 ± 1.2% | 94.8 ± 7.5% | 97.5 ± 1.4% | 91.2 ± 9.1% | 97.9 ± 1.8% | 99.97 ± 0.89% | 98.6 ± 2.6% | 96.25 ± 0.77% | 99.5 ± 6%
O=C([O-])CC(O)(C(=O)[O-])C(O)C(=O)[O-].[K+].[K+].[K+] (stereo not drawn) [Hydroxycitrate] | < 0.0301 | < 0.0301 | < 0.0301 | < 0.0301 | 87.2 ± 28% | 97.7 ± 6.6% | 101 ± 10% | 93.7 ± 14% | 94.9 ± 3.3% | 97.98 ± 0.11% | 99.09 ± 0.31% | 90.3 ± 14% | 100 ± 2.7% | 103.8 ± 0.85% | 103 ± 3.8% | 108 ± 10% | 106.2 ± 0.079% | 87.7 ± 10% | 95.3 ± 9.5% | 97.3 ± 11% | 97.3 ± 2.8% | 92.4 ± 6.2% | 98.1 ± 6.8% | 94.4 ± 9.3%
COC(=O)c1cc2c(C(F)(F)F)cc(-c3ccccc3)cc2n1O [NHI-2] | < 0.0301 | < 0.0301 | < 0.0301 | < 0.0301 | 101 ± 16% | 102 ± 3.1% | 103 ± 4.8% | 96.9 ± 18% | 90.5 ± 6% | 100 ± 4% | 94.829 ± 0.083% | 92.8 ± 10% | 103 ± 8.9% | 104 ± 1.4% | 100 ± 3.5% | 103 ± 3.6% | 107 ± 4.8% | 102 ± 3.6% | 107.3 ± 0.8% | 99.3 ± 8.1% | 109 ± 7.1% | 111 ± 6% | 98.4 ± 0.75% | 97.3 ± 13%
Cc1cccc(Nc2cc(Cl)nc(SCC(=O)O)n2)c1C [Pirinixic acid] | < 0.0301 | < 0.0301 | < 0.0301 | < 0.0301 | 98.81 ± 0.56% | 97.46 ± 0.45% | 70.6 ± 36% | 96.5 ± 14% | 99 ± 2% | 94.5 ± 4.6% | 89.6 ± 7.2% | 80.8 ± 28% | 96.2 ± 2.9% | 96.3 ± 2.2% | 94.6 ± 6.5% | 91.1 ± 6% | 99.2 ± 2.7% | 100.4 ± 0.83% | 99.1 ± 5.2% | 102 ± 3.8% | 98.02 ± 0.94% | 96.4 ± 0.97% | 77.3 ± 27% | 96.7 ± 5.6%
OC[C@H]1NC[C@H](O)[C@@H](O)[C@@H]1O [Duvoglustat] | < 0.0301 | < 0.0301 | < 0.0301 | < 0.0301 | 96.9 ± 6.2% | 99.3 ± 1.8% | 97.4 ± 5.2% | 97.9 ± 10% | 99.7 ± 3.4% | 95.3 ± 2.3% | 92.82 ± 0.14% | 108 ± 14% | 96.3 ± 3.1% | 102 ± 3.9% | 107 ± 1.9% | 108 ± 8.1% | 96.5 ± 7.2% | 102 ± 2.6% | 105 ± 8.7% | 109 ± 1.7% | 94 ± 10% | 101.5 ± 0.68% | 95.8 ± 6.5% | 106 ± 4.1%
CCc1oc2ccccc2c1C(=O)c1cc(Br)c(O)c(Br)c1 [Benzbromarone] | < 0.0301 | < 0.0301 | < 0.0301 | < 0.0301 | 98.7 ± 1.8% | 101 ± 1.1% | 95.9 ± 1.3% | 93.8 ± 3.1% | 99.3 ± 1.6% | 99 ± 2.1% | 104 ± 4.5% | 99.8 ± 1% | 98.9 ± 1.8% | 101 ± 4% | 105 ± 9.6% | 97.7 ± 4.2% | 102 ± 2.5% | 103 ± 2.3% | 102.3 ± 0.5% | 118 ± 10% | 99.81 ± 0.45% | 101.1 ± 0.99% | 97.85 ± 0.96% | 98 ± 12%
